This is an account of results in patent US20250114345A1, “COMPOUNDS AND COMPOSITIONS AS CBP/P300 DEGRADERS AND USES THEREOF” (Oncopia Therapeutics, Inc. d/b/a/ SK Life Science Labs, priority 2023, published 2025).

SMILES strings stand for the structures.

The assay deals with T1, p300 (Homo sapiens, UniProt Q09472).
T1 construct: host or cells: A549 P300 HiBit cells
The experiment in a line: P300 degradation, HiBit technology in A549 P300 HiBit cells (2 h). It is filed as cell-based. As to conditions: 2 hrs post treatment; for Dmax: A549, A549 P300 HiBit cells; for DC50: A549 P300 HiBit cells. The gist of the method: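 Cells: A549 HiBiT-tagged lines, 0.2×10^4/well, F-12K + 10% HI-FBS, equilibrated overnight. Tx: serial dilution of cpd (10 mM DMSO stock). Readout: HiBiT lytic reagent, 10 min RT shaking, luminescence → potency, Dmax.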
For orientation: The HiBiT peptide binds its large partner to form an active luciferase.

T1 sequence (Q09472 whole entry): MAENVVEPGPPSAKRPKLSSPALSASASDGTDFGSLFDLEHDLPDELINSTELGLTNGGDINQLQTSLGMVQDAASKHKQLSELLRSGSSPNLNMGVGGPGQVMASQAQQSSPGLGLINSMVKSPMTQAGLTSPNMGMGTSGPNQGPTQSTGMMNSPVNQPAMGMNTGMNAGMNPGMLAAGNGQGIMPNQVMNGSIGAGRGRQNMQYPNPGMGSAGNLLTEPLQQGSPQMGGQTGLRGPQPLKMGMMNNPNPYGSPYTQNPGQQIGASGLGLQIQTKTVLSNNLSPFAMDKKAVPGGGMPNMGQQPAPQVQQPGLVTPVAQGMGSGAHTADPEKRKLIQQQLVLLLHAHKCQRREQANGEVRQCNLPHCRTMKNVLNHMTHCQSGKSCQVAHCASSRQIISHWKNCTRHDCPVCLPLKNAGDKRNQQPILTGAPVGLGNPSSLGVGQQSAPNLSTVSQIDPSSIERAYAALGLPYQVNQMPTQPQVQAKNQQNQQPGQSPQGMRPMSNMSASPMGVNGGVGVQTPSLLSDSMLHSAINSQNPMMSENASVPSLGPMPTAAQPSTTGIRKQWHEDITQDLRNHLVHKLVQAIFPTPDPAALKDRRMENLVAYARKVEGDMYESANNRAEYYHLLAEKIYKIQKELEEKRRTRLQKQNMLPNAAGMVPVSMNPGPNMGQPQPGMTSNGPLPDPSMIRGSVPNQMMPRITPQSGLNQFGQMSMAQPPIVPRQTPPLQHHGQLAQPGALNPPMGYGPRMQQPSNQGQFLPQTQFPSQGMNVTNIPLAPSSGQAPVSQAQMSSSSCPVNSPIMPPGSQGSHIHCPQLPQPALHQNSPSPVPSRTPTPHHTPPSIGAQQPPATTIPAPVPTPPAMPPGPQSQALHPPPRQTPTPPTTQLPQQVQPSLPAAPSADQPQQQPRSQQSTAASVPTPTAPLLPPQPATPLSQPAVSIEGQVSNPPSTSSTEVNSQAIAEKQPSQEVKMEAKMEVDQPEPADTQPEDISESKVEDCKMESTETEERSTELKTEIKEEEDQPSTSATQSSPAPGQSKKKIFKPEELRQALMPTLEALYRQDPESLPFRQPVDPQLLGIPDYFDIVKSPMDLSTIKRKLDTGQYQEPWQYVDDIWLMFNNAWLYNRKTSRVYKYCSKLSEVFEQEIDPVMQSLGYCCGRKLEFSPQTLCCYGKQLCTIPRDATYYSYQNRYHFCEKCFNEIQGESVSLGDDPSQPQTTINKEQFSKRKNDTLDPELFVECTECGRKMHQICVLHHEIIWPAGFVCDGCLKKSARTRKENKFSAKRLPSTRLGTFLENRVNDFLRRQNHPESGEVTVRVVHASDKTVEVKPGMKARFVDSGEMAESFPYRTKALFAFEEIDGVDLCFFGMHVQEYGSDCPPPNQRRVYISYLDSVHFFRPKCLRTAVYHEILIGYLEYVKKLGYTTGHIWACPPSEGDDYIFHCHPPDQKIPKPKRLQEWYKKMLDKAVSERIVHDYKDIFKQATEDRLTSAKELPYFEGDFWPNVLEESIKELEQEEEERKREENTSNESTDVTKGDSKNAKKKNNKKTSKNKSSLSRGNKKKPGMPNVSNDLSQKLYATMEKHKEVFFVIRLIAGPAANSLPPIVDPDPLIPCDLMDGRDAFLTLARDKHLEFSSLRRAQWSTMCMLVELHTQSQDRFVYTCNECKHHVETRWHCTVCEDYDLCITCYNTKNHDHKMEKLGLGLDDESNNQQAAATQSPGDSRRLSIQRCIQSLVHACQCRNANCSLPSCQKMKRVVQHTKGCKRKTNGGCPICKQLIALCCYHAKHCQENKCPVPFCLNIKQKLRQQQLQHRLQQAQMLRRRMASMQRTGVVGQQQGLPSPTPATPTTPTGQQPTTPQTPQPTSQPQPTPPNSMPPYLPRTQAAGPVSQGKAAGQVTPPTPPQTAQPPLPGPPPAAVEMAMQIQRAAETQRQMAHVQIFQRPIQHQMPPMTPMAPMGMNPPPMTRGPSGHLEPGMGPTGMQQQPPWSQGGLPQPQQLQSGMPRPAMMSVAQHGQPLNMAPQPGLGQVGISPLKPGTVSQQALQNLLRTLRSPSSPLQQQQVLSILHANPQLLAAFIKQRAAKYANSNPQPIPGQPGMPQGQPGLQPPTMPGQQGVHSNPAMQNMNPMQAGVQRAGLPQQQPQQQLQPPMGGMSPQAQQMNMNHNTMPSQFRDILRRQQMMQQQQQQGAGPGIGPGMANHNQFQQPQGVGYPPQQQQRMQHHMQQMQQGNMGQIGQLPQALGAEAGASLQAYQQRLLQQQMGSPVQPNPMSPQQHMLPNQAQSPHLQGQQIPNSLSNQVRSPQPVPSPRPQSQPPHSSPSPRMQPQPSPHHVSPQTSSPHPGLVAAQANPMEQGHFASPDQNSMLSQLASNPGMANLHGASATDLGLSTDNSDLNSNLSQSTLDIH

One may read the Dmax as the largest share of the target that was removed. A high value points to deep degradation. Usually DC50 stands for the concentration giving 50% degradation. High values mean degradation only at high concentration, low ones degradation at low concentration. Consider `COc1nn(C2CCC(=O)NC2=O)c2cc(C#CCNC(=O)c3ccc(-c4cc5cccc(-c6cc(C(C)C)c7c(c6)n(C)c(=O)n7C)c5cn4)cn3)ccc12` (stereo not drawn) [Example A4, N-(3-(1-(2,6-Dioxopiperidin-3-yl)-3-methoxy-1H-indazol-6-yl)prop-2-yn-1-yl)-5-(8-(7-isopropyl-1,3-dimethyl-2-oxo-2,3-dihydro-1H-benzo[d]imidazol-5-yl)isoquinolin-3-yl)picolinamide], for which the Dmax is greater than 80% and the DC50 was in the range of 10 to 99 nM.

Take `Cc1nc2c(N3CCCc4nc(-c5ccc(C(=O)NCC#Cc6ccc7occ(C8CCC(=O)NC8=O)c7c6)nc5)ncc43)cc(C3CCOCC3)cc2n(C)c1=O` (stereo not drawn) [Example B78, 5-(5-(1,3-dimethyl-2-oxo-7-(tetrahydro-2H-pyran-4-yl)-1,2-dihydroquinoxalin-5-yl)-5,6,7,8-tetrahydropyrido[3,2-d]pyrimidin-2-yl)-N-(3-(3-(2,6-dioxopiperidin-3-yl)benzofuran-5-yl)prop-2-yn-1-yl)picolinamide]: the Dmax was less than 20% and the DC50 was greater than 1000 nM.

In the case of `Cn1c(=O)n(C)c2c(-n3cccn3)nc(-c3cccc4cc(-c5ccc(C(=O)NCC#Cc6ccc7occ(C8CCC(=O)NC8=O)c7c6)nc5)ncc34)cc21` (stereo not drawn) [Example A152, 5-(8-(1,3-dimethyl-2-oxo-4-(1H-pyrazol-1-yl)-2,3-dihydro-1H-imidazo[4,5-c]pyridin-6-yl)iso-quinolin-3-yl)-N-(3-(3-(2,6-dioxopiperidin-3-yl)benzofuran-5-yl)prop-2-yn-1-yl)picolinamide], the Dmax was 20 to 39% and the DC50 lay in the range of 10 to 99 nM.

Turning to `Cn1c(=O)n(C)c2c(N3CC[Si](C)(C)CC3)nc(-c3cccc4cc(-c5ccc(C(=O)NCC#Cc6ccc7occ(C8CCC(=O)NC8=O)c7c6)nc5)ncc34)cc21` (stereo not drawn) [Example A118, 5-(8-(4-(4,4-dimethyl-1,4-azasilinan-1-yl)-1,3-dimethyl-2-oxo-2,3-dihydro-1H-imidazo[4,5-c]pyridin-6-yl)isoquinolin-3-yl)-N-(3-(3-(2,6-dioxopiperidin-3-yl)benzofuran-5-yl)prop-2-yn-1-yl)picolinamide], the Dmax was 60 to 79% and the DC50 is 10 to 99 nM.

In the case of `Cc1cc2c(N3CCCc4nc(-c5ccc(C(=O)NCC#Cc6ccc7occ(C8CCC(=O)NC8=O)c7c6)nc5)ncc43)nc(C3CCOCC3)cc2n(C)c1=O` (stereo not drawn) [Example B70, 5-(5-(1,3-dimethyl-2-oxo-7-(tetrahydro-2H-pyran-4-yl)-1,2-dihydro-1,6-naphthyridin-5-yl)-5,6,7,8-tetrahydropyrido[3,2-d]pyrimidin-2-yl)-N-(3-(3-(2,6-dioxopiperidin-3-yl)benzofuran-5-yl)prop-2-yn-1-yl)picolinamide], the Dmax was in the range of 60 to 79% and the DC50 was in the range of 1 to 9.9 nM.

`Cc1cc2cnn(C3CCC(=O)NC3=O)c2cc1C#CCNC(=O)c1ccc(-c2cc3cccc(-c4cc(C(C)C)c5c(c4)n(C)c(=O)n5C)c3cn2)cn1` (stereo not drawn) [Example A8, N-(3-(1-(2,6-Dioxopiperidin-3-yl)-5-methyl-1H-indazol-6-yl)prop-2-yn-1-yl)-5-(8-(7-isopropyl-1,3-dimethyl-2-oxo-2,3-dihydro-1H-benzo[d]imidazol-5-yl)isoquinolin-3-yl)picolinamide] yielded a Dmax of 60 to 79% and a DC50 of 10 to 99 nM.

`Cn1c(=O)n(C)c2c(C3CCS(=O)(=O)CC3)nc(N3CCCc4cc(-c5ccc(C(=O)NCC#Cc6ccc7occ(C8CCC(=O)NC8=O)c7c6)nc5)c(C(F)F)cc43)cc21` (stereo not drawn) [Example A140, 5-(7-(difluoromethyl)-1-(4-(1,1-dioxido-tetrahydro-2H-thio-pyran-4-yl)-1,3-dimethyl-2-oxo-2,3-dihydro-1H-imidazo[4,5-c]pyridin-6-yl)-1,2,3,4-tetrahydroquinolin-6-yl)-N-(3-(3-(2,6-dioxopiperidin-3-yl)benzofuran-5-yl)prop-2-yn-1-yl)picolinamide] yielded a Dmax of 40 to 59% and a DC50 of 1 to 9.9 nM.

`Cc1cc(-c2ncc(N(C)c3cc(N4CCOCC4)c4oc(=O)n(C)c4c3)cn2)cnc1C(=O)NCC#Cc1ccc2occ(C3CCC(=O)NC3=O)c2c1` (stereo not drawn) [Example A80, N-(3-(3-(2,6-dioxo-piperidin-3-yl)benzofuran-5-yl)prop-2-yn-1-yl)-3-methyl-5-(5-(methyl (3-methyl-7-morpholino-2-oxo-2,3-dihydrobenzo [d]oxazol-5-yl)amino)pyrimidin-2-yl)picolinamide] came in with a Dmax of less than 20% and a DC50 greater than 1000 nM.

In turn, `CC(C)c1cc(N2CCOc3cc(-c4ccc(C(=O)NCC#Cc5ccc6occ(C7CCC(=O)NC7=O)c6c5)nc4)c(C#N)cc32)cc2c1n(C)c(=O)n2C` (stereo not drawn) [Example A134, 5-(6-cyano-4-(7-iso-propyl-1,3-dimethyl-2-oxo-2,3-dihydro-1H-benzo[d]imidazol-5-yl)-3,4-dihydro-2H-benzo[b][1,4]oxazin-7-yl)-N-(3-(3-(2,6-dioxopiperidin-3-yl)benzofuran-5-yl)prop-2-yn-1-yl)picolinamide] registered a Dmax greater than 80% and a DC50 of 1 to 9.9 nM.

Compound `CC(C)c1cc(C2CC(C)(C)Oc3cc(-c4ccc(C(=O)NCC#Cc5ccc6occ(C7CCC(=O)NC7=O)c6c5)nc4)c(F)cc32)cc2c1n(C)c(=O)n2C` (stereo not drawn) [Example A85, N-(3-(3-(2,6-dioxo-piperidin-3-yl)benzofuran-5-yl)prop-2-yn-1-yl)-5-(6-fluoro-4-(7-isopropyl-1,3-dimethyl-2-oxo-2,3-dihydro-1H-benzo [d]imidazol-5-yl)-2,2-dimethylchroman-7-yl)picolinamide] showed a Dmax greater than 80% and a DC50 of 1 to 9.9 nM.

The compound `Cc1cc(=O)n(C)c2cc(C3CCOCC3)cc(N3CCCc4nc(-c5ccc(C(=O)NCC#Cc6ccc7occ(C8CCC(=O)NC8=O)c7c6)nc5)ncc43)c12` (stereo not drawn) [Example B80, 5-(5-(1,4-dimethyl-2-oxo-7-(tetrahydro-2H-pyran-4-yl)-1,2-dihydroquinolin-5-yl)-5,6,7,8-tetrahydropyrido[3,2-d]pyrimidin-2-yl)-N-(3-(3-(2,6-dioxopiperidin-3-yl)benzofuran-5-yl)prop-2-yn-1-yl)picolinamide] gave a Dmax of less than 20% and a 50% degradation concentration (DC50) greater than 1000 nM.

The compound `Cc1cc(-c2ccc(N(C)c3cc(C(C)C)c4c(c3)n(C)c(=O)n4C)cc2C(F)(F)F)cnc1C(=O)NCC#Cc1cccc(NC2CCC(=O)NC2=O)c1` (stereo not drawn) [Example A48, N-(3-(3-((2,6-dioxopiperidin-3-yl)amino)phenyl)prop-2-yn-1-yl)-5-(4-((7-isopropyl-1,3-dimethyl-2-oxo-2,3-dihydro-1H-benzo [d]imidazol-5-yl)(methyl)amino)-2-(trifluoromethyl)phenyl)-3-methylpicolinamide] yielded a Dmax of 60 to 79% and a DC50 of 10 to 99 nM.

Turning to `CCn1c(=O)n(C)c2ccc(-c3cccc4cc(-c5ccc(C(=O)NCC#Cc6cc7c(C8CCC(=O)NC8=O)cccc7o6)nc5)ncc34)cc21` (stereo not drawn) [Example A267, N-(3-(4-(2,6-dioxo-piperidin-3-yl)benzofuran-2-yl)prop-2-yn-1-yl)-5-(8-(3-ethyl-1-methyl-2-oxo-2,3-dihydro-1H-benzo [d]imidazol-5-yl)isoquinolin-3-yl)picolinamide], the Dmax was greater than 80% and the DC50 lay within 1 to 9.9 nM.

Compound `Cc1cc(-c2ncc3c(n2)CCCN3c2cccc3c2cc(C)c(=O)n3C)cnc1C(=O)NCC#Cc1ccc2occ(C3CCC(=O)NC3=O)c2c1` (stereo not drawn) [Example B45, 5-(5-(1,3-dimethyl-2-oxo-1,2-dihydroquinolin-5-yl)-5,6,7,8-tetrahydropyrido[3,2-d]pyrimidin-2-yl)-N-(3-(3-(2,6-dioxopiperidin-3-yl)benzofuran-5-yl)prop-2-yn-1-yl)-3-methylpicolinamide] registered a Dmax greater than 80% and a DC50 of 1 to 9.9 nM.

`Cc1cc(-c2ncc3c(n2)OCCN3c2cc(C)c3c(c2)n(C)c(=O)n3C)cnc1C(=O)NCC#Cc1cc2c(C3CCC(=O)NC3=O)cccc2o1` (stereo not drawn) [Example A241, N-(3-(4-(2,6-dioxo-piperidin-3-yl)benzofuran-2-yl)prop-2-yn-1-yl)-3-methyl-5-(5-(1,3,7-trimethyl-2-oxo-2,3-dihydro-1H-benzo [d]imidazol-5-yl)-6,7-dihydro-5H-pyrimido [4,5-b][1,4]oxazin-2-yl)picolinamide] gave a Dmax greater than 80% and a DC50 of 1 to 9.9 nM.

As to `Cc1cc(-c2ccc(Nc3cc(C(C)C)c4c(c3)n(C)c(=O)n4C)cn2)cnc1C(=O)NCC#Cc1ccc2occ(C3CCC(=O)NC3=O)c2c1` (stereo not drawn) [Example A125, N-(3-(3-(2,6-dioxo-piperidin-3-yl)benzofuran-5-yl)prop-2-yn-1-yl)-5-((7-isopropyl-1,3-dimethyl-2-oxo-2,3-dihydro-1H-benzo [d]imidazol-5-yl)amino)-5′-methyl-[2,3′-bipyridine]-6′-carboxamide], the Dmax is 40 to 59% and the DC50 was in the range of 10 to 99 nM.

In turn, `Cc1cc2c(N3CCCc4nc(-c5ccc6c(c5)C(=O)N(CC#Cc5ccc7occ(C8CCC(=O)NC8=O)c7c5)C6)ncc43)cc(C3CCOCC3)cc2n(C)c1=O` (stereo not drawn) [Example B44, 3-(5-(3-(6-(5-(1,3-dimethyl-2-oxo-7-(tetrahydro-2H-pyran-4-yl)-1,2-dihydroquinolin-5-yl)-5,6,7,8-tetrahydropyrido[3,2-d]pyrimidin-2-yl)-1-oxoisoindolin-2-yl)prop-1-yn-1-yl)benzofuran-3-yl)piperidine-2,6-dione] came in with a Dmax of 20 to 39% and a DC50 of 1 to 9.9 nM.

Turning to `Cc1cc(-c2ncc(N(C)c3cc(C(C)C)c4c(c3)n(C)c(=O)n4C)cc2F)cnc1C(=O)NCC#Cc1ccc2occ(C3CCC(=O)NC3=O)c2c1` (stereo not drawn) [Example A153, N-(3-(3-(2,6-dioxo-piperidin-3-yl)benzofuran-5-yl)prop-2-yn-1-yl)-3-fluoro-5-((7-iso-propyl-1,3-dimethyl-2-oxo-2,3-dihydro-1H-benzo[d]imidazol-5-yl)(methyl)amino)-5′-methyl-[2,3′-bipyridine]-6′-carboxamide], the maximal degradation (Dmax) is greater than 80% and the DC50 fell in the range of 1 to 9.9 nM.
